{"source": "patent US10730848B2", "about": "(priority 2013, dated 2020)", "key": {"[1]": {"system": "anthrax lethal toxin (LT)", "type": "cell-based, mice"}, "Diphtheria toxin": {"system": "Diphtheria toxin", "type": "cell-based"}, "[2]": {"system": "VSV-pseudotyped lentivirus", "type": "cell-based"}, "[3]": {"system": "Nipah-pseudotyped lentivirus", "type": "cell-based"}, "F. tularensis LVS": {"system": "F. tularensis LVS", "type": "cell-based"}, "EGFR": {"system": "EGFR", "type": "cell-based", "details": "15-30 min"}, "THP-1 cells": {"system": "THP-1 cells", "type": "cell-based, human"}, "[4]": {"system": "exotoxin A from Pseudomonas aeruginosa (ExoA)", "type": "cell-based"}, "caspase-1": {"system": "caspase-1", "type": "cell-based, mice"}, "influenza A/WSN/33 virus": {"system": "influenza A/WSN/33 virus", "type": "cell-based"}, "PA": {"system": "PA", "type": "cell-based"}, "LT": {"system": "LT", "details": "rat, in vivo"}, "transferrin (Tf)": {"system": "transferrin (Tf)", "type": "cell-based"}, "[5]": {"system": "GFP-expressing Armstrong variant of LCMV", "type": "cell-based"}, "acidic compartments": {"system": "acidic compartments", "type": "cell-based"}, "EGF": {"system": "EGF", "type": "cell-based"}, "PA+LFnDTA": {"system": "PA+LFnDTA", "type": "cell-based"}, "MEK2": {"system": "MEK2", "type": "cell-based, murine"}, "[6]": {"system": "anthrax lethal toxin (LT)", "assay": "cells", "type": "cell-based, murine", "details": "for IC50: Mus musculus"}}, "note": "Entries after “also recorded” stand apart in the source; their conditions may differ. Like-named read-outs stand apart in the source and are kept apart here."}
{"smiles": "Cc1cccc(C)c1NC(=O)N/N=C/c1ccc(Br)cc1", "note": "[Compound 1, N^1-(4-BROMOBENZYLIDENE)-N^4-(2,6-DIMETHYLPHENYL)SEMICARBAZONE]", "values": [{"measurement": "protection of BMDMs from killing by LT", "setting": "[1]", "result": "protected"}, {"measurement": "protection of HeLa cells from DT", "setting": "Diphtheria toxin", "result": "effectively protected"}, {"measurement": "infection by VSV-G pseudotyped virus", "setting": "[2]", "result": "Inhibits Infection by Low pH-dependent VSV-pseudotyped lentivirus; also recorded: effectively inhibited; also recorded: neutralized"}, {"measurement": "infection by Nipah-pseudotyped lentivirus", "setting": "[3]", "result": "Does Not Inhibit Infection; also recorded: did not inhibit"}, {"measurement": "phagocytic uptake of F. tularensis LVS", "setting": "F. tularensis LVS", "result": "Does Not Block Phagocytic Uptake of F. tularensis; also recorded: Neither EGA nor bafilomycin A1 blocked"}, {"measurement": "EGFR degradation at early times post EGF stimulation", "setting": "EGFR", "result": "Slows EGFR-Degradation at 15 Minutes; also recorded: significantly less EGFR degraded at 30 min"}, {"measurement": "trafficking of Texas-red dextran to phagosomes", "setting": "THP-1 cells", "result": "Does Not Block Texas Red-Dextran Trafficking to Phagosomes; also recorded: Neither EGA nor bafilomycin A1 inhibited"}, {"measurement": "protection of HeLa cells from ExoA", "setting": "[4]", "result": "effectively protected"}, {"measurement": "LT-mediated caspase-1 activation", "setting": "caspase-1", "result": "inhibits LT-mediated caspase-1 activation; also recorded: active caspase-1 was not detected"}, {"measurement": "influenza virus infection (reporter activation)", "setting": "influenza A/WSN/33 virus", "result": "Inhibits Entry of Influenza virus; also recorded: completely inhibited infection; also recorded: partial protection"}, {"measurement": "binding of PA83 to cells or proteolytic processing to PA63", "setting": "PA", "result": "did not block"}, {"measurement": "tolerability", "setting": "LT", "result": "well tolerated in rats"}, {"measurement": "intoxication (cell cycle arrest) by EcCDT", "setting": "EcCDT", "result": "did not inhibit intoxication"}, {"measurement": "transferrin recycling to the cell surface", "setting": "transferrin (Tf)", "result": "Does Not Inhibit Transferrin Receptor Recycling to the Plasma Membrane; also recorded: had no affect"}, {"measurement": "acute LCMV infection", "setting": "[5]", "result": "Reduces Acute LCMV Infection; also recorded: decreased the total number of cells infected and the amount of virus being produced"}, {"measurement": "cell-associated Lysotracker Red fluorescence (neutralization of acidic compartments)", "setting": "acidic compartments", "result": "Does Not Neutralize Acidic Compartments; also recorded: did not reduce"}, {"measurement": "EGF retention in EEA1-positive endosomes", "setting": "EGF", "result": "Results in EGF Retention in EEA1+ Endosomes; also recorded: retained in enlarged endosomes"}, {"measurement": "stabilization of EGF", "setting": "EGF", "result": "stabilized EGF up to 60 min"}, {"measurement": "protection from PA+LFnDTA", "setting": "PA+LFnDTA", "result": "Protects Cells from PA+LFnDTA; also recorded: resistant"}, {"measurement": "HdCDT localization in EEA-1-positive vesicles", "setting": "HdCDT", "result": "Traps HdCDT in Enlarged EEA-1-Positive Vesicles"}, {"measurement": "cytotoxicity induced by Hd-CDT", "setting": "HdCDT", "result": "Inhibits cytotoxicity induced by Hd-CDT"}, {"measurement": "LT-mediated cleavage of MEK2", "setting": "MEK2", "result": "inhibits LT-mediated cleavage of MEK-2; also recorded: completely abrogated"}, {"measurement": "rescued viability, of unintoxicated controls", "setting": "[6]", "result": "up to 100%"}, {"measurement": "time after LT at which addition still completely protects cells from killing", "setting": "[6]", "result": "up to 15 minutes"}, {"measurement": "IC50", "setting": "[6]; RAW264.7", "result": 1.4, "unit": "µM"}, {"measurement": "IC50", "setting": "[6]; RAW264.7, read-out: IC50 (In uM)", "result": 1.27, "unit": "µM"}, {"measurement": "IC50", "setting": "[6]; RAW264.7, read-out: IC50, inhibition of LT-induced cell death", "result": 1.4, "unit": "µM"}, {"measurement": "IC50", "setting": "[6]; RAW264.7, read-out: IC50 in cell-based LT intoxication experiments", "result": 1.4, "unit": "µM"}]}
